Paper PMC3506555, “[^11C]phenytoin revisited: synthesis by [^11C]CO carbonylation and first evaluation as a P-gp tracer in rats” (EJNMMI Research, 2012)

Legend:
[1] = tested on: P-gp; design: method as in PMID 14642487, PMID 16857389, PMID 15961982, PMID 18783208, PMID 19647170; conditions: rat and human brain; cited from earlier work
[2] = Observation of animals after probenecid administration; assay type: in vivo; conditions: probenecid 150 mg·kg^−1 i.v., during 30 to 40 min after administration

| Compound | Brain-to-plasma equilibrium concentration ratio (VT) at baseline [1] | Breathing frequency after administration [2] |
| --- | --- | --- |
| COc1cc2c(cc1OC)CN(CCc1ccc(NC(=O)c3cc(O[11CH3])c(OC)cc3NC(=O)c3cnc4ccccc4c3)cc1)CC2 [^11C]tariquidar] | about 1 |  |
| CCCN(CCC)S(=O)(=O)c1ccc(C(=O)O)cc1 [probenecid] |  | severely depressed breathing frequency |
| COC(=O)c1cnc2n1CCc1ccccc1C2=C1CCN(CCc2ccc(OCc3ccc4ccccc4n3)cc2)CC1 [^11C]laniquidar] | about 1 |  |
| [11CH3]NC(=O)C(CCN1CCC(O)(c2ccc(Cl)cc2)CC1)(c1ccccc1)c1ccccc1 [^11C]desmethyl loperamide] | about 1 |  |
